Measurements published in ChEMBL document CHEMBL4052662, “Synthesis, docking study and neuroprotective effects of some novel pyrano[3,2-c]chromene derivatives bearing morpholine/phenylpiperazine moiety” (Bioorg Med Chem, 2017).

Tests used:
[1] = target: Cholinesterase (Equus caballus, UniProt P81908); test: Inhibition of equine serum BuChE using butyrylthiocholine iodide as substrate measured for 6 mins by Ellman's method
[2] = target: T1, Acetylcholinesterase (Electrophorus electricus, UniProt O42275); test: Inhibition of electric eel AChE using acetylthiocholine iodide as substrate measured for 6 mins by Ellman's method
[3] = Selectivity index, ratio of IC50 for equine serum BuChE to IC50 for electric eel AChE
[4] = system: PC-12; test: Neuroprotective activity against H2O2-induced cell death in rat PC12 cells assessed as cell viability 10 uM pretreated for three hours followed by H2O2 induction after 12 hrs by MTT assay relative to control; type: functional
[5] = target: T1, Acetylcholinesterase; test: Mixed-type inhibition of electric eel AChE using varying levels of acetylthiocholine iodide as substrate measured for 2 mins by Lineweaver-Burk plot analysis
[6] = target: Beta-secretase 1 (Homo sapiens) (UniProt P56817); test: Inhibition of human BACE1 using Rh-EVNLDAEFK-quencher as substrate measured after 60 mins by FRET assay
Sequence of Beta-secretase 1 (Homo sapiens) (P56817 whole entry): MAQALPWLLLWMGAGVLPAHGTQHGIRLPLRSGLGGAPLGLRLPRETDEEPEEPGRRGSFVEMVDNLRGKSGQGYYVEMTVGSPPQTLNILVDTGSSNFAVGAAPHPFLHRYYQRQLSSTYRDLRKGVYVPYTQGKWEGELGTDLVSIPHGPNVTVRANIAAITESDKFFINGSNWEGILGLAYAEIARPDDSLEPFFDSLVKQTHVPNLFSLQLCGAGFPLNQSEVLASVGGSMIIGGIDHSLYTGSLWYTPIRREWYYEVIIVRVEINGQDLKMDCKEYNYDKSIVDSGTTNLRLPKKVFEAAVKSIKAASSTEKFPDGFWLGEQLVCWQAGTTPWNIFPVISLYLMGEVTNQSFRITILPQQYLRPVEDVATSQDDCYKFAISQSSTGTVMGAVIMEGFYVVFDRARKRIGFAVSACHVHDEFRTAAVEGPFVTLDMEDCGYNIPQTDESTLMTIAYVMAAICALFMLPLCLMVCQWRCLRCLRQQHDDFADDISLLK

Sequence of Cholinesterase (P81908 whole entry): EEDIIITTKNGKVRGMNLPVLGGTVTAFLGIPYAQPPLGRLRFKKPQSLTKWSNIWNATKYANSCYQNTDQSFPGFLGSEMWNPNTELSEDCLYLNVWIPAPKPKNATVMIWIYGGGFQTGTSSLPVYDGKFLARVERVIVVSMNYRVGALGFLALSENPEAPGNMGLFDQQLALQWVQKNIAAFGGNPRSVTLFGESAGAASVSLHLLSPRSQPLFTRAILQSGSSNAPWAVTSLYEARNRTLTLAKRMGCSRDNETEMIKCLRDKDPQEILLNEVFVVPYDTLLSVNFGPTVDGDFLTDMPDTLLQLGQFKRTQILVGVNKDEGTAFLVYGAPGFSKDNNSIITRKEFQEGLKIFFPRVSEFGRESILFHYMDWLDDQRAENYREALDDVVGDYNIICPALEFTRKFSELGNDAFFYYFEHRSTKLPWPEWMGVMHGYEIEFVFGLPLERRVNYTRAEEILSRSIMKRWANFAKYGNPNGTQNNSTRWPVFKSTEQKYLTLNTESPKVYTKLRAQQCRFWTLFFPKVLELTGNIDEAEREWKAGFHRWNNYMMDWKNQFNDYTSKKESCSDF
T1 sequence (O42275 whole entry): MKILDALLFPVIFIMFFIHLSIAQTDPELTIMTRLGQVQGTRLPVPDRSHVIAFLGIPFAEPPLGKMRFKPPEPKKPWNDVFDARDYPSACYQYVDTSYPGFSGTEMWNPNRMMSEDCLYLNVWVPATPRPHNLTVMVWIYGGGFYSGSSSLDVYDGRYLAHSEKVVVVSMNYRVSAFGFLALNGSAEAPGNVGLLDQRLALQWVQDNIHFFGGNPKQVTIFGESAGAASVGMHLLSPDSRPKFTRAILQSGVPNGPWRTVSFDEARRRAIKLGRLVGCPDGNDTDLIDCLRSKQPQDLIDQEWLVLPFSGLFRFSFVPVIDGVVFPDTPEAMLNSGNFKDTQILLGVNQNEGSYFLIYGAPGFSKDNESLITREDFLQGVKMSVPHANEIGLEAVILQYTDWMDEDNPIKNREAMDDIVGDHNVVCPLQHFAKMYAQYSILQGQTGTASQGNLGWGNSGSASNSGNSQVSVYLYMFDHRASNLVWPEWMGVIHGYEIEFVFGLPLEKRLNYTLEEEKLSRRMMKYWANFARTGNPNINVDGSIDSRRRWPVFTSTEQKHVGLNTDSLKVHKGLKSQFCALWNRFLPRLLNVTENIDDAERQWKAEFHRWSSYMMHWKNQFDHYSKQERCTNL

Row | SMILES | IC50 ([1]; read-out: IC50) [µM] | IC50 ([2]; read-out: IC50) [µM] | Ratio IC50 [3] | Activity [4] [%] | IC50 [1] | IC50 [2] | Ki [5] [µM] | inhibition [6] [%]
1 | Cc1ccc(C2C(C#N)=C(NC(=O)CN3CCN(c4ccccc4)CC3)Oc3c2c(=O)oc2ccccc32)c(C)c1 (configuration not stated) | > 100 | 32.9 |  |  |  |  |  | 
2 | COc1ccc(C2C(C#N)=C(NC(=O)CN3CCN(c4ccccc4)CC3)Oc3c2c(=O)oc2ccccc32)c(OC)c1 (configuration not stated) | > 100 | 31.4 |  |  |  |  |  | 
3 | N#CC1=C(NC(=O)CN2CCOCC2)Oc2c(c(=O)oc3ccccc23)C1c1ccc(Cl)cc1 (configuration not stated) | 91.5 | 14.6 | 6.3 |  |  |  |  | 
4 | N#CC1=C(NC(=O)CN2CCN(c3ccccc3)CC2)Oc2c(c(=O)oc3ccccc23)C1c1ccc(Cl)cc1 (configuration not stated) | 89.2 | 6.33 | 14.1 | 75 |  |  |  | 
5 | N#CC1=C(NC(=O)CN2CCN(c3ccccc3)CC2)Oc2c(c(=O)oc3ccccc23)C1c1ccc([N+](=O)[O-])cc1 (configuration not stated) |  |  |  |  | Nd(Insoluble) | Nd(Insoluble) |  | 
6 | N#CC1=C(NC(=O)CN2CCOCC2)Oc2c(c(=O)oc3ccccc23)C1c1ccc(F)cc1 (configuration not stated) | > 100 | > 100 |  |  |  |  |  | 
7 | COc1ccc(C2C(C#N)=C(NC(=O)CN3CCN(c4ccccc4)CC3)Oc3c2c(=O)oc2ccccc32)cc1OC (configuration not stated) | 58.2 | 1.42 | 41 | 76 |  |  |  | 
8 | N#CC1=C(NC(=O)CN2CCOCC2)Oc2c(c(=O)oc3ccccc23)C1c1ccccc1 (configuration not stated) | 88.4 | 23.9 | 3.7 |  |  |  |  | 
9 | N#CC1=C(NC(=O)CN2CCOCC2)Oc2c(c(=O)oc3ccccc23)C1c1cccs1 (configuration not stated) | > 100 | > 100 |  |  |  |  |  | 
10 | COc1ccc(C2C(C#N)=C(NC(=O)CN3CCN(c4ccccc4)CC3)Oc3c2c(=O)oc2ccccc32)cc1 (configuration not stated) | 45.7 | 1.12 | 40.8 | 84.7 |  |  | 3.19 | 18
11 | N#CC1=C(NC(=O)CN2CCN(c3ccccc3)CC2)Oc2c(c(=O)oc3ccccc23)C1c1ccccc1 (configuration not stated) | 52.3 | 11.5 | 4.5 |  |  |  |  | 
12 | COc1ccc(C2C(C#N)=C(NC(=O)CN3CCOCC3)Oc3c2c(=O)oc2ccccc32)cc1 (configuration not stated) | 63.8 | 2.05 | 31.1 | 78.5 |  |  |  | 
13 | COc1ccc(C2C(C#N)=C(NC(=O)CN3CCOCC3)Oc3c2c(=O)oc2ccccc32)c(OC)c1 (configuration not stated) | > 100 | 25.6 |  |  |  |  |  | 
14 | N#CC1=C(NC(=O)CN2CCOCC2)Oc2c(c(=O)oc3ccccc23)C1c1ccc([N+](=O)[O-])cc1 (configuration not stated) | > 100 | > 100 |  |  |  |  |  | 
15 | COc1ccc(C2C(C#N)=C(NC(=O)CN3CCOCC3)Oc3c2c(=O)oc2ccccc32)cc1OC (configuration not stated) | 34.2 | 3.25 | 10.5 | 84.7 |  |  |  | 
16 | N#CC1=C(NC(=O)CN2CCN(c3ccccc3)CC2)Oc2c(c(=O)oc3ccccc23)C1c1ccc(F)cc1 (configuration not stated) |  |  |  |  | Nd(Insoluble) | Nd(Insoluble) |  | 
